Data: US12528774B2, “Thiosemicarbazone compounds and uses thereof” (The Regents of the University of California, priority 2019, dated 2026)

Experiments:
[1] = system: MIAPACA2 PDAC cells; assay: Intracellular copper measurement by ICP-MS; format: cell-based, human; conditions: HCT13 25 nM, 24 h, with and without 20 μM Cu(II)
From the text: FIG. 1A: IC50 values in a panel of human and mouse prostate cancer (PC)(cell lines CF-2, LNCaP, 22Rv1, RM-1, MyC CaP); small cell lung carcinoma (SCLC)(cell lines NCI-H1963, NCI-H146, NCI-H526); pancreatic ductal adenocarcinoma (PDAC)(CFPAC1, SW1990, HS766T, PANC0203, PANC0813, ASPC1, HPAFII, PATU8902, PANC0327, PANC1, YAPC, L36PL, XWR200, HUPT4, A13A, SUIT2, DAN-G, BxPC3, HPAC, PSN1, SU8686, KP4662, MIAPACA2, PATU8988T); and leukemia (cell lines KG-1, TF-1, Jurkat, MOLT-4, p185-R, MV4-11) models treated with HCT13+Cu(II) (20 μM) for 72 h measured by CellTiterGlo. […] (mean±SD, n=2, one-way ANOVA corrected for multiple comparisons by Bonferroni adjustment, * P<0.05; **P<0.01; ***P<0.001).
The MIAPACA2 cell line, a well-characterized PDAC model that was highly sensitive to HCT13 treatment, was used to further investigate the mechanism of action of our lead compound. MIAPACA2 proliferation was measured in response to HCT13 in the presence and absence of 20 μM CuCl2 (Cu(II)), as well as in response to 20 μM Cu(II) alone (FIG. 1B). […] To probe whether HCT13 was acting as an ionophore, intracellular copper levels were measured using inductively coupled plasma mass spectrometry (ICP-MS). […]
Intracellular Cu(II) measurement. […] The concentration of Cu(II) was measured using Inductive Coupled Plasma Mass Spectrometry (ICP-MS) using standard procedure.

[2] = system: MIAPACA2 cells; assay: Mito Stress Test (oxygen consumption rate, Seahorse); format: cell-based, human; conditions: HCT13 25 nM + Cu(II) 20 μM, 24 h
Method: FIG. 3A: Mito Stress Test of MIAPACA2 PDAC cells treated with HCT13 (25 nM)+Cu(II) (20 μM) for 24h. FIG. 3B: electron flow assay in isolated mitochondria treated with HCT-13 (100 nM)+Cu(II) (20 μM) for 1h. FIG. 3C: viability of 143 BTK parental (wild type, WT) and ρ0 cells after 48h of the indicated HCT13 concentration+Cu(II) (20 μM) treatment, assessed with Trypan Blue Staining. FIG. 3D: 48h cell cycle histogram and plots of S-phase arrest plots in 143 BTK WT and 143 BTK ρ0 cells at 24, 48 and 72h following treatment with indicated concentrations of HCT13+Cu(II)(20 μM). (mean±SD, n=2, one-way ANOVA corrected for multiple comparisons by Bonferroni adjustment, * P<0.05; ** P<0.01; *** P<0.001). […]
Mito Stress Test and Electron Flow Assay: All oxygen consumption rate (OCR) was measured using a XF24 Analyzer (Agilent) and normalized per μg protein. […] OCR was measured before (total respiration) and after the sequential injection of 1 μM oligomycin (complex V inhibitor), 0.75 μM FCCP (uncoupler), and 1 μM of rotenone and myxothiazol (complex I and III inhibitors, respectively), as described previously (1). Mitochondrial respiration was calculated by subtracting the non-mitochondrial respiration left after rotenone and myxothiazol injection. […] OCR was measured before and after the sequential injections described in the previous paragraph. […]

CN(C)C(=S)N/N=C/c1nccc2cc(F)ccc12 (mixture of isomers) [HCT13, (E)-2-((6-Fluoroisoquinolin-1-yl)methylene)-N,N-dimethylhydrazine-1-carbothioamide and (Z)-2-((6-Fluoroisoquinolin-1-yl)methylene)-N,N-dimethylhydrazine-1-carbothioamide]
intracellular copper levels [1]: increased
basal respiration and maximum respiratory capacity (OCR) [2]: significantly reduced
basal respiration and maximum respiratory capacity (OCR) ([2]; listed as HCT-13): decreased significantly
